Laboratory results as given in US20230017532A1 (Hoffmann-La Roche Inc., priority 2018, published 2023).
Where a name gives a salt, the structure may show the parent alone.

Test system: Acinetobacter baumannii ATCC17978
Experiment: Antimicrobial susceptibility testing: 90% growth inhibitory concentration (IC90) determination, Iso-Sensitest broth, OD 600 nm
Type: cell-based
Settings: 90% growth inhibitory concentration, Acinetobacter baumannii ATCC17978, Iso-Sensitest broth, OD 600 nm over 16 h; read-out: ATCC 17978 IC90
Outline: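 Twofold serial dilutions (e.g. 50–0.097 μM final) incubated with ~5×10^5 CFU/ml in Iso-Sensitest broth at 35±2 °C. OD600 read every 20 min for 16 h; IC90 derived from growth inhibition during logarithmic phase.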

| SMILES | IC90 [nM] |
| --- | --- |
| COc1ccc(-c2cnc3c(Nc4ccc(C(=O)NCCOCCN)c(C)c4)nccn23)cc1 [Example 77] | 230 |

Same assay, conditions: Acinetobacter baumannii, ATCC17978, 16 h, 90% growth inhibitory concentration, Acinetobacter baumannii ATCC17978, Iso-Sensitest broth, OD 600 nm over 16 h; read-out: ATCC 17978 IC90

| SMILES | IC90 [nM] |
| --- | --- |
| N#CCOc1ccc(-c2cnc3c(Nc4ccc(C(=O)NCCOCCn5ccnc5)c(Cl)c4)nccn23)c(F)c1F [Example 19, N-(2-(2-(1H-imidazol-1-yl)ethoxy)ethyl)-2-chloro-4-((3-(4-(cyanomethoxy)-2,3-difluorophenyl)imidazo[1,2-a]pyrazin-8-yl)amino)benzamide] | 83 |
| COc1ccc(-c2cnc3c(Nc4ccc(C(=O)NCCOCCNS(C)(=O)=O)c(C)c4)nccn23)cc1 [Example 109, N-[2-[2-(methane-sulfonamido)ethoxy]ethyl]-4-[[3-(4-methoxyphenyl)imidazo[1,2-a]pyrazin-8-yl]amino]-2-methylbenzamide] | 530 |
| CCc1cc(Nc2nccn3c(-c4ccc(OC(F)F)c(F)c4F)cnc23)ccc1C(=O)NCCCNCCO [Example 193, 4-((3-(4-(difluoro-methoxy)-2,3-difluorophenyl)imidazo[1,2-a]pyrazin-8-yl)amino)-2-ethyl-N-(3-((2-hydroxyethyl)amino)propyl) benzamide] | 280 |
| Cc1cc(Nc2nccn3c(-c4ccc(OC(F)F)cc4)cnc23)ccc1C(=O)NCCOCCN=C(N(C)C)N(C)C [Example 79, N-[2-[2-[bis (dimethylamino)methylidene-amino]ethoxy]ethyl]-4-[[3-[4-(difluoro-methoxy)phenyl]imidazo [1,2-a]pyrazin-8-yl]amino]-2-methylbenzamide] | 1400 |
| CCc1cc(Nc2nccn3c(-c4ccc(OC(F)F)c(F)c4F)cnc23)ccc1C(=O)NCCOCCN(C)CC(=O)O [Example 51, N-(2-(2-(4-((3-(4-(Difluoromethoxy)-2,3-difluorophenyl)imidazo[1,2-a]pyrazin-8-yl)amino)-2-ethylbenzamido)ethoxy)ethyl)-N-methylglycine trifluoroacetate] | 300 |
| CCc1cc(Nc2nccn3c(-c4ccc(OC)cc4)cnc23)ccc1C(=O)NCCOCCNCCO [Example 89, 2-ethyl-N-[2-[2-(2-hydroxyethyl-amino)ethoxy]ethyl]-4-[[3-(4-methoxyphenyl)imidazo[1,2-a]pyrazin-8-yl]amino]benzamide] | 220 |
| Cc1cc(Nc2nccn3c(-c4ccc(OCC#CCOCCN)cc4)cnc23)ccc1C(=O)NCCOCCN [Example 100, 4-[[3-[4-[4-(2-aminoethoxy)but-2-ynoxy]phenyl]imidazo[1,2-a]pyrazin-8-yl]amino]-N-[2-(2-aminoethoxy)ethyl]-2-methylbenzamide; formic acid] | 440 |
| COc1ccc(-c2cnc3c(Nc4ccc(C(=O)NCCOCCO)c(C)c4)nccn23)cc1 [Example 116, N-[2-(2-hydroxyethoxy)ethyl]-4-[[3-(4-methoxyphenyl)imidazo[1,2-a]pyrazin-8-yl]amino]-2-methylbenzamide] | 590 |
| COc1ccc(-c2cnc3c(Nc4ccc(C(=O)NCCOCCN)cc4)nccn23)cc1 [Example 15, N-(2-(2-aminoethoxy)ethyl)-4-((3-(4-methoxyphenyl)imidazo[1,2-a]pyrazin-8-yl)amino)benzamide hydrochloride] | 3800 |
| COCC#CCOc1ccc(-c2cnc3c(Nc4ccc(C(=O)NCCOCCN)c(C)c4)nccn23)cc1 [Example 93, N-[2-(2-aminoethoxy)ethyl]-4-[[3-[4-(4-methoxy-but-2-ynoxy)phenyl]imidazo[1,2-a]pyrazin-8-yl]amino]-2-methylbenzamide; formic acid] | 280 |
| CCCCC(=O)NCCOCCNC(=O)c1ccc(Nc2nccn3c(-c4ccc(OC)cc4)cnc23)cc1C [Example 141, 4-[[3-(4-methoxyphenyl)imidazo[1,2-a]pyrazin-8-yl]amino]-2-methyl-N-[2-[2-(pentanoylamino)ethoxy]ethyl] benzamide] | 1000 |
| COc1ccc(-c2cnc3c(Nc4ccc(C(=O)N(CCC#N)CCCCNCCC#N)c(C)c4)nccn23)cc1F [Example 165, N-(2-cyanoethyl)-N-[4-(2-cyanoethyl-amino)butyl]-4-[[3-(3-fluoro-4-methoxyphenyl)imidazo[1,2-a]pyrazin-8-yl]amino]-2-methylbenzamide] | 1500 |
| Cc1cc(Nc2nccn3c(-c4ccc(OC(F)F)cc4)cnc23)ccc1C(=O)NCCOCCN1CCC2(CCOCC2)C1 [Example 91, 4-[[3-[4-(difluoromethoxy)phenyl]imidazo [1,2-a]pyrazin-8-yl]amino]-2-methyl-N-[2-[2-(8-oxa-2-azaspiro[4.5]decan-2-yl)ethoxy]ethyl] benzamide] | 650 |
| COc1ccc(-c2cnc3c(Nc4ccc(C(=O)NCCN(C)CCN)c(C)c4)nccn23)cc1F [Example 23, N-(2-((2-aminoethyl)(methyl)amino)ethyl)-4-((3-(3-fluoro-4-methoxyphenyl)imidazo[1,2-a]pyrazin-8-yl)amino)-2-methylbenzamide] | 200 |
| COc1ccc(-c2cnc3c(Nc4ccc(C(=O)NCCOCCCl)c(C)c4)nccn23)cc1 [Example 8, N-(2-(2-chloroethoxy)ethyl)-4-((3-(4-methoxyphenyl)imidazo[1,2-a]pyrazin-8-yl)amino)-2-methylbenzamide] | 630 |
| COc1ccc(-c2cnc3c(Nc4ccc(C(=O)NCCOCCN5CCOC5=O)c(C)c4)nccn23)cc1 [Example 76, 4-[[3-(4-methoxyphenyl)imidazo[1,2-a]pyrazin-8-yl]amino]-2-methyl-N-[2-[2-(2-oxo-1,3-oxazolidin-3-yl)ethoxy]ethyl] benzamide] | 720 |
| Cc1cc(Nc2nccn3c(-c4ccc(OC(F)F)cc4)cnc23)ccc1C(=O)NCCOCCNS(C)(=O)=O [Example 102, 4-[[3-[4-(difluoromethoxy)phenyl]imidazo [1,2-a]pyrazin-8-yl]amino]-N-[2-[2-(methane-sulfonamido)ethoxy]ethyl]-2-methylbenzamide] | 460 |
| Cc1cc(Nc2nccn3c(-c4ccc(OC(F)F)cc4)cnc23)ccc1C(=O)NCCOCCN1CCOC(CN)C1 (stereo not drawn) [Example 164, N-[2-[2-[2-(aminomethyl)morpholin-4-yl]ethoxy]ethyl]-4-[[3-[4-(difluoro-methoxy)phenyl]imidazo [1,2-a]pyrazin-8-yl]amino]-2-methylbenzamide; hydrochloride] | 970 |
| Cc1cc(Nc2nccn3c(-c4ccc(OC(F)F)cc4)cnc23)ccc1C(=O)NCCOCCN(C)C [Example 96, 4-[[3-[4-(difluoromethoxy)phenyl]imidazo [1,2-a]pyrazin-8-yl]amino]-N-[2-[2-(dimethylamino)ethoxy]ethyl]-2-methyl-benzamide] | 310 |
| COc1ccc(-c2cnc3c(Nc4ccc(C(=O)N(C)CCOCCN5CC6(COC6)C5)c(C)c4)nccn23)cc1F [Example 108, 4-[[3-(3-fluoro-4-methoxyphenyl)imidazo[1,2-a]pyrazin-8-yl]amino]-N,2-dimethyl-N-[2-[2-(2-oxa-6-azaspiro [3.3]heptan-6-yl)ethoxy]ethyl] benzamide] | 520 |
| Cc1cc(Nc2nccn3c(-c4ccc(OC(F)F)cc4)cnc23)ccc1C(=O)NCCOCCN1CCCCC1 [Example 95, 4-[[3-[4-(difluoromethoxy)phenyl]imidazo [1,2-a]pyrazin-8-yl]amino]-2-methyl-N-[2-(2-piperidin-1-ylethoxy)ethyl] benzamide] | 280 |

Same assay, conditions: Acinetobacter baumannii, ATCC17978, 16 h, read-out: ATCC 17978 IC90

| SMILES | IC90 [nM] |
| --- | --- |
| COc1ccc(-c2cnc3c(Nc4cc(F)c(C(=O)NCCOCCN)c(Cl)c4)nccn23)c(F)c1F [Example 60, dihydrochloride] | 91 |
| COc1ccc(-c2cnc3c(Nc4ccc(C(=O)NCCOCCN)c(C)c4)nccn23)c(F)c1F [Example 5, N-(2-(2-aminoethoxy)ethyl)-4-((3-(2,3-difluoro-4-methoxyphenyl)imidazo[1,2-a]pyrazin-8-yl)amino)-2-methylbenzamide hydrochloride] | 65 |
| CCc1cc(Nc2nccn3c(-c4ccc(OC)c(F)c4F)cnc23)ccc1C(=O)NCCOC(C)(C)CN [Example 71, N-[2-(2-amino-1,1-dimethyl-ethoxy)ethyl]-4-[[3-(2,3-difluoro-4-methoxy-phenyl)imidazo[1,2-a]pyrazin-8-yl]amino]-2-ethyl-benzamide; formic acid] | 28 |
| Cc1cc(Nc2nccn3c(-c4ccc(F)c(F)c4)cnc23)ccc1C(=O)NCCOCCN [Example 33, N-(2-(2-aminoethoxy)ethyl)-4-((3-(3,4-difluorophenyl)imidazo[1,2-a]pyrazin-8-yl)amino)-2-methylbenzamide hydrochloride] | 520 |
| CC#CCOc1ccc(-c2cnc3c(Nc4ccc(C(=O)NCCOCCN)c(C)c4)nccn23)cc1 [Example 67, N-[2-(2-aminoethoxy)ethyl]-4-[[3-(4-but-2-ynoxyphenyl)imidazo[1,2-a]pyrazin-8-yl]amino]-2-methyl-benzamide; 2,2,2-trifluoroacetic acid] | 230 |
| CCc1cc(Nc2nccn3c(-c4ccc(OC)cc4N)cnc23)ccc1C(=O)NCCOCCN [Example 57, 4-((3-(2-amino-4-methoxyphenyl)imidazo[1,2-a]pyrazin-8-yl)amino)-N-(2-(2-aminoethoxy)ethyl)-2-ethylbenzamide hydrochloride] | 650 |
| CCc1cc(Nc2nccn3c(-c4ccc(OC(F)F)c(F)c4F)cnc23)ccc1C(=O)NCCOCCO[C@H]1O[C@H](CO)[C@H](O)[C@H](O)[C@H]1O [Example 194, 4-((3-(4-(difluoro-methoxy)-2,3-difluorophenyl)imidazo[1,2-a]pyrazin-8-yl)amino)-2-ethyl-N-(2-(2-(((2S,3R, 4S,5R,6R)-3,4,5-trihydroxy-6-(hydroxymethyl)tetrahydro-2H-pyran-2-yl)oxy)ethoxy)ethyl) benzamide formate] | 350 |
| CCc1cc(Nc2nccn3c(-c4c(F)cc(OC)cc4F)cnc23)ccc1C(=O)NCCOCCN [Example 54, N-[2-(2-aminoethoxy)ethyl]-4-[[3-(2,6-difluoro-4-methoxyphenyl)imidazo[1,2-a]pyrazin-8-yl]amino]-2-ethylbenzamide hydrochloride] | 320 |
